*1 amine or outer side, *2 acyl side, *3 side chain or, on linkers, in order; H or OH if unused. Where a SMILES comes first, the peptide text is derived from it. Side-chain parts run from the residue outwards. [ ]: non-standard residue; d: D form. The star is where a group is joined. C20 diacid = O=C(O)CCCCCCCCCCCCCCCCCCC(=O)*; γGlu = O=C(O)[C@H](CCC(=O)[*:2])N[*:1]; 4Pal = N[C@@H](Cc1ccncc1)C(=O)O; αMeL = CC(C)C[C@](C)(N)C(=O)O; Iva = CC[C@](C)(N)C(=O)O; AEEA = NCCOCCOCC(=O)O; Aib = CC(C)(N)C(=O)O
Legend:
human GcgR = biological target: T1, human GcgR (Homo sapiens, UniProt P47871); experiment: [125I]-Glucagon binding, SPA with WGA beads, 0.1% bacitracin; details: geometric mean, read-out: hGcgR Ki
T1 construct: expressed in transfected cells; crude membranes
T1 sequence (P47871 26-477): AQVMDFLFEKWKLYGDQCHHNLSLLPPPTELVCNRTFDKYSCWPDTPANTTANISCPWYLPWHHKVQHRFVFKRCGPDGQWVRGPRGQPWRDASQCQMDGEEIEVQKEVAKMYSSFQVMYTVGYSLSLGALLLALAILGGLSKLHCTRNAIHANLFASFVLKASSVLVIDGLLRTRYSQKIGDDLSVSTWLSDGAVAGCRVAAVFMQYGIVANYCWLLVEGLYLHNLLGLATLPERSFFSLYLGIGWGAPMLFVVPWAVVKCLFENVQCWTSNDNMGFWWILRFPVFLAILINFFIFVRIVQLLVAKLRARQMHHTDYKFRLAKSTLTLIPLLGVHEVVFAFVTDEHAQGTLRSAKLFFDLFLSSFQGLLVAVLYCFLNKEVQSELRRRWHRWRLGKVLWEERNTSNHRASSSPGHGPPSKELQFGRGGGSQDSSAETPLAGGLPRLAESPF
Method in brief: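 SPA competition binding with WGA beads on crude membranes from HEK293 cells stably expressing hGcgR. Buffer: 25 mM HEPES pH 7.4, 2.5 mM CaCl2, 1 mM MgCl2, 0.1% bacitracin, 0.003% Tween-20; 10-point 3-fold dilutions, NSB with 1 μM Gcg.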

human GIPR = biological target: T2, human GIPR (Homo sapiens, UniProt P48546); experiment: [125I]-GIP binding, SPA with WGA beads, 0.1% bacitracin; details: geometric mean, read-out: hGIPR Ki
T2 construct: expressed in transfected cells; crude membranes
T2 sequence (P48546 22-466): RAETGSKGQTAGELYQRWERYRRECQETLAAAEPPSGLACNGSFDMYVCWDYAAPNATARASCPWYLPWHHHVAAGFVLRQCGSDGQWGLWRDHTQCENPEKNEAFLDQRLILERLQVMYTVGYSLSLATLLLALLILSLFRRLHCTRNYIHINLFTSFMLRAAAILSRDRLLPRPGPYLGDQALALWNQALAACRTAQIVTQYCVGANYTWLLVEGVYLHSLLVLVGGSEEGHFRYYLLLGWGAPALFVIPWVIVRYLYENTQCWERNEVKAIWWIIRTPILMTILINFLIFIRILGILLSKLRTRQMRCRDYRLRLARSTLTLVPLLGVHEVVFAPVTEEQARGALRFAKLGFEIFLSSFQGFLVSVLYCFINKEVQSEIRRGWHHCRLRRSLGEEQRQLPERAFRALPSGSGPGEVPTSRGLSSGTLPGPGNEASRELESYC
Method in brief: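 Ki values are geometric means (SEM, n independent days), derived from four-parameter nonlinear regression of IC50. Membranes came from hGIPR-expressing CHO cells.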

human GLP-1R = biological target: T3, human GLP-1R (Homo sapiens, UniProt P43220); experiment: [125I]-GLP-1 binding, SPA with WGA beads, 0.1% bacitracin; details: geometric mean, read-out: hGLP1R Ki
T3 construct: expressed in transfected cells; crude membranes
T3 sequence (P43220 24-463): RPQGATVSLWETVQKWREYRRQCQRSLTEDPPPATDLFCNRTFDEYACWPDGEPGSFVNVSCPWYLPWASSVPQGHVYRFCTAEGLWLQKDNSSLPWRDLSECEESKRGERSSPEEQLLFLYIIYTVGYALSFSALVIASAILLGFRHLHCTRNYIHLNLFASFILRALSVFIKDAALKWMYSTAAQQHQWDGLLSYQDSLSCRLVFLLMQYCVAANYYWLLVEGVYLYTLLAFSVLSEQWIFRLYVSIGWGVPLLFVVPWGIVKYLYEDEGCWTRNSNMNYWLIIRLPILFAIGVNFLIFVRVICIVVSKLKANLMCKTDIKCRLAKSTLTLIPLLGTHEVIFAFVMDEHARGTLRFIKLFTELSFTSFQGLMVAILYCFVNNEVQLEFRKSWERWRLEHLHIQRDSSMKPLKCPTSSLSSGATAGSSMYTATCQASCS
Method in brief: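 Binding buffer was 25 mM HEPES pH 7.4 with 2.5 mM CaCl2, 1 mM MgCl2, 0.1% (w/v) bacitracin, 0.003% Tween-20 and EDTA-free protease inhibitors. Four-parameter regression gave IC50, converted to Ki (geometric mean, SEM, n independent days).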

SMILES	Ki (human GcgR) [nM]	Ki (human GIPR) [nM]	Ki (human GLP-1R) [nM]
CC[C@H](C)[C@H](NC(=O)[C@H](Cc1ccccc1)NC(=O)[C@@H](NC(=O)CNC(=O)[C@H](CCC(=O)O)NC(=O)C(C)(C)NC(=O)[C@@H](N)Cc1ccc(O)cc1)[C@@H](C)O)C(=O)N[C@@H](CO)C(=O)N[C@@H](CC(=O)O)C(=O)N[C@@H](Cc1ccc(O)cc1)C(=O)N[C@@H](CO)C(=O)N[C@H](C(=O)N[C@@](C)(CC(C)C)C(=O)N[C@@H](CC(C)C)C(=O)N[C@@H](CC(=O)O)C(=O)N[C@@H](CCCCN)C(=O)N[C@@H](CCCCNC(=O)COCCOCCNC(=O)COCCOCCNC(=O)CC[C@H](NC(=O)CCCCCCCCCCCCCCCCCCC(=O)O)C(=O)O)C(=O)N[C@@H](Cc1c[nH]cn1)C(=O)N[C@@H](CCC(N)=O)C(=O)NC(C)(C)C(=O)N[C@@H](CCC(=O)O)C(=O)N[C@@H](Cc1ccccc1)C(=O)N[C@H](C(=O)N[C@@H](CCC(=O)O)C(=O)N[C@@H](Cc1ccc(O)cc1)C(=O)N[C@@H](CC(C)C)C(=O)N[C@@H](CC(C)C)C(=O)N[C@@H](CCC(=O)O)C(=O)N[C@@H](C)C(=O)NCC(=O)N1CCC[C@H]1C(=O)N[C@@H](CO)C(=O)N[C@@H](CO)C(=O)NCC(=O)N[C@@H](C)C(=O)N1CCC[C@H]1C(=O)N1CCC[C@H]1C(=O)N1CCC[C@H]1C(=O)N[C@@H](CO)C(N)=O)C(C)C)[C@@H](C)CC [Example 65] (H-Y[Aib]EGTFISDYSI[αMeL]LDKK([AEEA-AEEA-γGlu-C20 diacid])HQ[Aib]EFVEYLLEAGPSSGAPPPS-NH2)	279	0.0316	305
CC[C@H](C)[C@H](NC(=O)[C@H](CC(C)C)NC(=O)[C@@H](NC(=O)CNC(=O)[C@H](CCC(=O)O)NC(=O)C(C)(C)NC(=O)[C@@H](N)Cc1ccc(O)cc1)[C@@H](C)O)C(=O)N[C@@H](CO)C(=O)N[C@@H](CC(=O)O)C(=O)N[C@@H](Cc1ccc(O)cc1)C(=O)N[C@@H](CO)C(=O)N[C@H](C(=O)N[C@@](C)(CC(C)C)C(=O)N[C@@H](CC(C)C)C(=O)N[C@@H](CC(=O)O)C(=O)N[C@@H](CCCCN)C(=O)N[C@@H](CCCCNC(=O)COCCOCCNC(=O)COCCOCCNC(=O)CC[C@H](NC(=O)CCCCCCCCCCCCCCCCCCC(=O)O)C(=O)O)C(=O)N[C@@H](Cc1c[nH]cn1)C(=O)N[C@@H](CCC(N)=O)C(=O)NC(C)(C)C(=O)N[C@@H](CCC(=O)O)C(=O)N[C@@H](Cc1ccccc1)C(=O)N[C@H](C(=O)N[C@@H](CCC(=O)O)C(=O)N[C@@H](Cc1ccc(O)cc1)C(=O)N[C@@H](CC(C)C)C(=O)N[C@@H](CC(C)C)C(=O)N[C@@H](CCC(=O)O)C(=O)N[C@H](C(=O)NCC(=O)N1CCC[C@H]1C(=O)N[C@@H](CO)C(=O)N[C@@H](CO)C(=O)NCC(=O)N[C@@H](C)C(=O)N1CCC[C@H]1C(=O)N1CCC[C@H]1C(=O)N1CCC[C@H]1C(=O)N[C@@H](CO)C(N)=O)[C@@H](C)O)C(C)C)[C@@H](C)CC [Example 72] (H-Y[Aib]EGTLISDYSI[αMeL]LDKK([AEEA-AEEA-γGlu-C20 diacid])HQ[Aib]EFVEYLLETGPSSGAPPPS-NH2)	837	0.0594	437
CC[C@H](C)[C@H](NC(=O)[C@H](CO)NC(=O)[C@H](Cc1ccc(O)cc1)NC(=O)[C@H](CC(=O)O)NC(=O)[C@H](CO)NC(=O)[C@@H](NC(=O)[C@](C)(CC)NC(=O)[C@@H](NC(=O)CNC(=O)[C@H](CCC(=O)O)NC(=O)C(C)(C)NC(=O)[C@@H](N)Cc1ccc(O)cc1)[C@@H](C)O)[C@@H](C)CC)C(=O)N[C@@](C)(CC(C)C)C(=O)N[C@@H](CC(C)C)C(=O)N[C@@H](CC(=O)O)C(=O)N[C@@H](CCCCN)C(=O)N[C@@H](CCCCNC(=O)COCCOCCNC(=O)COCCOCCNC(=O)CC[C@H](NC(=O)CCCCCCCCCCCCCCCCCCC(=O)O)C(=O)O)C(=O)N[C@@H](Cc1c[nH]cn1)C(=O)N[C@@H](CCC(N)=O)C(=O)NC(C)(C)C(=O)N[C@@H](CC(=O)O)C(=O)N[C@@H](Cc1ccccc1)C(=O)N[C@H](C(=O)N[C@@H](CCC(=O)O)C(=O)N[C@@H](Cc1ccncc1)C(=O)N[C@@H](CC(C)C)C(=O)N[C@@H](CC(C)C)C(=O)N[C@@H](C)C(=O)NCC(=O)NCC(=O)N1CCC[C@H]1C(=O)N[C@@H](CO)C(=O)N[C@@H](CO)C(=O)NCC(=O)N[C@@H](C)C(=O)N1CCC[C@H]1C(=O)N1CCC[C@H]1C(=O)N1CCC[C@H]1C(=O)N[C@@H](CO)C(N)=O)C(C)C [Example 55] (H-Y[Aib]EGT[Iva]ISDYSI[αMeL]LDKK([AEEA-AEEA-γGlu-C20 diacid])HQ[Aib]DFVE[4Pal]LLAGGPSSGAPPPS-NH2)	> 960	0.0331	262
CC[C@H](C)[C@H](NC(=O)[C@H](Cc1ccccc1)NC(=O)[C@@H](NC(=O)CNC(=O)[C@H](CCC(=O)O)NC(=O)C(C)(C)NC(=O)[C@@H](N)Cc1ccc(O)cc1)[C@@H](C)O)C(=O)N[C@@H](CO)C(=O)N[C@@H](CC(=O)O)C(=O)N[C@@H](Cc1ccc(O)cc1)C(=O)N[C@@H](CO)C(=O)N[C@H](C(=O)N[C@@](C)(CC(C)C)C(=O)N[C@@H](CC(C)C)C(=O)N[C@@H](CC(=O)O)C(=O)N[C@@H](CCCCN)C(=O)N[C@@H](CCCCNC(=O)COCCOCCNC(=O)COCCOCCNC(=O)CC[C@H](NC(=O)CCCCCCCCCCCCCCCCCCC(=O)O)C(=O)O)C(=O)N[C@@H](Cc1c[nH]cn1)C(=O)N[C@@H](CCC(N)=O)C(=O)NC(C)(C)C(=O)N[C@@H](CCC(=O)O)C(=O)N[C@@H](Cc1ccccc1)C(=O)N[C@H](C(=O)N[C@@H](CCC(=O)O)C(=O)N[C@@H](Cc1ccc(O)cc1)C(=O)N[C@@H](CC(C)C)C(=O)N[C@@H](CC(C)C)C(=O)N[C@@H](CCC(=O)O)C(=O)N[C@H](C(=O)NCC(=O)N1CCC[C@H]1C(=O)N[C@@H](CO)C(=O)N[C@@H](CO)C(=O)NCC(=O)N[C@@H](C)C(=O)N1CCC[C@H]1C(=O)N1CCC[C@H]1C(=O)N1CCC[C@H]1C(=O)N[C@@H](CO)C(N)=O)[C@@H](C)O)C(C)C)[C@@H](C)CC [Example 64] (H-Y[Aib]EGTFISDYSI[αMeL]LDKK([AEEA-AEEA-γGlu-C20 diacid])HQ[Aib]EFVEYLLETGPSSGAPPPS-NH2)	196	0.022	477
CC[C@H](C)[C@H](NC(=O)[C@H](Cc1ccccc1)NC(=O)[C@@H](NC(=O)CNC(=O)[C@H](CCC(=O)O)NC(=O)C(C)(C)NC(=O)[C@@H](N)Cc1ccc(O)cc1)[C@@H](C)O)C(=O)N[C@@H](CO)C(=O)N[C@@H](CC(=O)O)C(=O)N[C@@H](Cc1ccc(O)cc1)C(=O)N[C@@H](CO)C(=O)N[C@H](C(=O)N[C@@](C)(CC(C)C)C(=O)N[C@@H](CC(C)C)C(=O)N[C@@H](CC(=O)O)C(=O)N[C@@H](CCCCN)C(=O)N[C@@H](CCCCNC(=O)COCCOCCNC(=O)COCCOCCNC(=O)CC[C@H](NC(=O)CCCCCCCCCCCCCCCCCCC(=O)O)C(=O)O)C(=O)N[C@@H](Cc1c[nH]cn1)C(=O)N[C@@H](CCC(N)=O)C(=O)NC(C)(C)C(=O)N[C@@H](CC(=O)O)C(=O)N[C@@H](Cc1ccccc1)C(=O)N[C@H](C(=O)N[C@@H](CCC(=O)O)C(=O)N[C@@H](Cc1ccc(O)cc1)C(=O)N[C@@H](CC(C)C)C(=O)N[C@@H](CC(C)C)C(=O)N[C@@H](CCC(=O)O)C(=O)N[C@H](C(=O)NCC(=O)N1CCC[C@H]1C(=O)N[C@@H](CO)C(=O)N[C@@H](CO)C(=O)NCC(=O)N[C@@H](C)C(=O)N1CCC[C@H]1C(=O)N1CCC[C@H]1C(=O)N1CCC[C@H]1C(=O)N[C@@H](CO)C(N)=O)[C@@H](C)O)C(C)C)[C@@H](C)CC [Example 66] (H-Y[Aib]EGTFISDYSI[αMeL]LDKK([AEEA-AEEA-γGlu-C20 diacid])HQ[Aib]DFVEYLLETGPSSGAPPPS-NH2)	279	0.0866	326
CC[C@H](C)[C@H](NC(=O)[C@H](Cc1ccccc1)NC(=O)[C@@H](NC(=O)CNC(=O)[C@H](CCC(=O)O)NC(=O)C(C)(C)NC(=O)[C@@H](N)Cc1ccc(O)cc1)[C@@H](C)O)C(=O)N[C@@H](CO)C(=O)N[C@@H](CC(=O)O)C(=O)N[C@@H](Cc1ccc(O)cc1)C(=O)N[C@@H](CO)C(=O)N[C@H](C(=O)N[C@@](C)(CC(C)C)C(=O)N[C@@H](CC(C)C)C(=O)N[C@@H](CC(=O)O)C(=O)N[C@@H](CCCCN)C(=O)N[C@@H](CCCCNC(=O)COCCOCCNC(=O)COCCOCCNC(=O)CC[C@H](NC(=O)CCCCCCCCCCCCCCCCCCC(=O)O)C(=O)O)C(=O)N[C@@H](Cc1c[nH]cn1)C(=O)N[C@@H](CCC(N)=O)C(=O)NC(C)(C)C(=O)N[C@@H](CC(=O)O)C(=O)N[C@@](C)(Cc1ccccc1)C(=O)N[C@H](C(=O)N[C@@H](CCC(=O)O)C(=O)N[C@@H](Cc1ccncc1)C(=O)N[C@@H](CC(C)C)C(=O)N[C@@H](CC(C)C)C(=O)N[C@@H](C)C(=O)NCC(=O)NCC(=O)N1CCC[C@H]1C(=O)N[C@@H](CO)C(=O)N[C@@H](CO)C(=O)NCC(=O)N[C@@H](C)C(=O)N1CCC[C@H]1C(=O)N1CCC[C@H]1C(=O)N1CCC[C@H]1C(=O)N[C@@H](CO)C(N)=O)C(C)C)[C@@H](C)CC [Example 56]	193	0.0487	530
